# Patent US12037339B2, “Substituted imidazoles as GLP-1 receptor agonists” (Eccogene Inc., priority 2020, dated 2024)
# Molecular target: (Homo sapiens, UniProt P43220)
# Assay: h-GLP-1 activity assay (cAMP HTRF, HEK293 cells with stable expression of human GLP-1)
# Assay type: cell-based
# Conditions: relative EC50, 10 nM human GLP-1 set as 100% response, 30 min at 37° C.
# Experimental: Human GLP-1 agonizing activity was detected in HEK293 cells with stable expression of human GLP-1 by Cisbio cAMP Gs dynamic kit (Catalog #62AM4PEC) according to manufacturer's protocol. Briefly, cells were collected and resuspended in assay buffer containing 0.1% BSA and 0.5 mM of IBMX at concentration to 2.5×10^5 cells/mL. Two μL 5× compound solution and 8 μL cell suspension were added to each well of low-volume 384 white assay plate. After 30 min incubation at 37° C., 5 μL cAMP-d2 working solution and 5 μL anti-cAMP antibody-cryptate were added to each well, and incubate at room temperature for 1 hr. Series dilution of cAMP was used as standard. Human GLP-1 (7-37) was used as positive control and 10 nM human GLP-1 was set as 100% response. HTRF signals were read at 665 and 615 nm with EnVision plate reader and calculated cAMP concentration by interpolation to the standard curve. The EC50 value of the tested compounds was calculated by fitting the dose response curve using a 4-parameter non-linear regression routine and relative EC50 was presented in Table 29.
# Chain of (Homo sapiens, UniProt P43220) (P43220 24-463): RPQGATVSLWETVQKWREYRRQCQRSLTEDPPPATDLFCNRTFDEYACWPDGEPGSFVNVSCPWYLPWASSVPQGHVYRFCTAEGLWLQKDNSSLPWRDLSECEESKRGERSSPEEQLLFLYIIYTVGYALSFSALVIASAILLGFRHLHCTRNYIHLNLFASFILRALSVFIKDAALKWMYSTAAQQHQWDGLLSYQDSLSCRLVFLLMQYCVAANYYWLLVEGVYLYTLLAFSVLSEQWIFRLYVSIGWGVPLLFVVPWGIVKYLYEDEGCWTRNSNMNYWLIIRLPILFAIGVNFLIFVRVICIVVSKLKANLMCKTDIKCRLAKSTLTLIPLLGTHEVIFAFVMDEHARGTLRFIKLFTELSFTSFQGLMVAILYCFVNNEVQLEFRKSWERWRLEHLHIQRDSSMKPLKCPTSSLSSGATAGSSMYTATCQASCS
row,EC50 [nM],SMILES
1,20 to 100,"CC1c2c(-n3ccn(-c4ccc5c(cnn5C)c4F)c3=O)c(-c3ccc(F)cc3)nn2CCN1C(=O)c1cn2cc(C3CCOCC3)ccc2c1C1(c2noc(=O)[nH]2)CC1 (racemic) [Compound 23, 3-(1-(2-(3-(3-(4-fluoro-1-methyl-1H-indazol-5-yl)-2-oxo-2,3-dihydro-1H-imidazol-1-yl)-2-(4-fluorophenyl)-4-methyl-4,5,6,7-tetrahydropyrazolo[1,5-a]pyrazine-5-carbonyl)-6-(tetrahydro-2H-pyran-4-yl)indolizin-1-yl)cyclopropyl)-1,2,4-oxadiazol-5(4H)-one]"
2,20 to 100,"Cc1cc(-n2nc3c(c2-n2ccn(-c4ccc5c(cnn5C)c4F)c2=O)[C@H](C)N(C(=O)c2cc4cc(C5CCOC(C)(C)C5)ccc4n2-c2cccc(-c4noc(=O)[nH]4)c2)CC3)cc(C)c1F (mixture of isomers) [Compound 30, 3-(3-(5-(2,2-dimethyltetrahydro-2H-pyran-4-yl)-2-((S)-3-(3-(4-fluoro-1-methyl-1H-indazol-5-yl)-2-oxo-2,3-dihydro-1H-imidazol-1-yl)-2-(4-fluoro-3,5-dimethylphenyl)-4-methyl-4,5,6,7-tetrahydro-2H-pyrazolo[4,3-c]pyridine-5-carbonyl)-1H-indol-1-yl)phenyl)-1,2,4-oxadiazol-5(4H)-one]"
3,> 100,"Cc1cc(-n2nc3c(c2-n2ccn(-c4ccc5c(cnn5C)c4F)c2=O)CN(C(=O)c2cc4cc(C5CCOC(C)(C)C5)ccc4n2Cc2nnc(O)s2)CC3)cc(C)c1F (racemic) [Compound 35, 1-(5-(5-(2,2-dimethyltetrahydro-2H-pyran-4-yl)-1-((5-hydroxy-1,3,4-thiadiazol-2-yl)methyl)-1H-indole-2-carbonyl)-2-(4-fluoro-3,5-dimethylphenyl)-4,5,6,7-tetrahydro-2H-pyrazolo[4,3-c]pyridin-3-yl)-3-(4-fluoro-1-methyl-1H-indazol-5-yl)-1,3-dihydro-2H-imidazol-2-one]"
4,> 100,"Cc1cc(-n2nc3c(c2-n2ccn(-c4ccc5c(cnn5C)c4F)c2=O)CN(C(=O)c2cc4cc(C5CCOC(C)(C)C5)ccc4n2Cc2cc(O)no2)CC3)cc(C)c1F (racemic) [Compound 36, 1-(5-(5-(2,2-dimethyltetrahydro-2H-pyran-4-yl)-1-((3-hydroxyisoxazol-5-yl)methyl)-1H-indole-2-carbonyl)-2-(4-fluoro-3,5-dimethylphenyl)-4,5,6,7-tetrahydro-2H-pyrazolo[4,3-c]pyridin-3-yl)-3-(4-fluoro-1-methyl-1H-indazol-5-yl)-1,3-dihydro-2H-imidazol-2-one]"
5,> 100,"Cc1cc(-n2nc3c(c2-n2ccn(-c4ccc5c(cnn5C)c4F)c2=O)CN(C(=O)c2cc4cc(C5CCOC(C)(C)C5)ccc4n2Cc2cc(O)ns2)CC3)cc(C)c1F (racemic) [Compound 42, 1-(5-(5-(2,2-dimethyltetrahydro-2H-pyran-4-yl)-1-((3-hydroxyisothiazol-5-yl)methyl)-1H-indole-2-carbonyl)-2-(4-fluoro-3,5-dimethylphenyl)-4,5,6,7-tetrahydro-2H-pyrazolo[4,3-c]pyridin-3-yl)-3-(4-fluoro-1-methyl-1H-indazol-5-yl)-1,3-dihydro-2H-imidazol-2-one]"
6,< 20,"Cc1cc(-n2nc3c(c2-n2ccn(-c4ccc5c(cnn5C)c4F)c2=O)[C@H](C)N(C(=O)c2cc4cc(C5CCOC(C)(C)C5)ccc4n2C2(c4nnc(O)s4)CC2)CC3)cc(C)c1F (mixture of isomers) [Compound 47, 1-((4S)-5-(5-(2,2-dimethyltetrahydro-2H-pyran-4-yl)-1-(1-(5-hydroxy-1,3,4-thiadiazol-2-yl)cyclopropyl)-1H-indole-2-carbonyl)-2-(4-fluoro-3,5-dimethylphenyl)-4-methyl-4,5,6,7-tetrahydro-2H-pyrazolo[4,3-c]pyridin-3-yl)-3-(4-fluoro-1-methyl-1H-indazol-5-yl)-1,3-dihydro-2H-imidazol-2-one]"
7,< 20,"Cc1cc(-n2nc3c(c2-n2ccn(-c4ccc5c(cnn5C)c4F)c2=O)[C@H](C)N(C(=O)c2cc4cc(C5CCOC(C)(C)C5)ccc4n2C2(c4nc(O)ns4)CC2)CC3)cc(C)c1F (mixture of isomers) [Compound 48, 1-((4S)-5-(5-(2,2-dimethyltetrahydro-2H-pyran-4-yl)-1-(1-(3-hydroxy-1,2,4-thiadiazol-5-yl)cyclopropyl)-1H-indole-2-carbonyl)-2-(4-fluoro-3,5-dimethylphenyl)-4-methyl-4,5,6,7-tetrahydro-2H-pyrazolo[4,3-c]pyridin-3-yl)-3-(4-fluoro-1-methyl-1H-indazol-5-yl)-1,3-dihydro-2H-imidazol-2-one]"
8,< 20,"Cc1cc(-n2nc3c(c2-n2ccn(-c4ccc5c(cnn5C)c4F)c2=O)[C@H](C)N(C(=O)c2cc4cc(C5CCOC(C)(C)C5)ccc4n2-c2ccccc2C(=O)O)CC3)cc(C)c1F (mixture of isomers) [Compound 54, 2-(5-(2,2-dimethyltetrahydro-2H-pyran-4-yl)-2-((S)-3-(3-(4-fluoro-1-methyl-1H-indazol-5-yl)-2-oxo-2,3-dihydro-1H-imidazol-1-yl)-2-(4-fluoro-3,5-dimethylphenyl)-4-methyl-4,5,6,7-tetrahydro-2H-pyrazolo[4,3-c]pyridine-5-carbonyl)-1H-indol-1-yl)benzoic acid]"
9,> 100,"Cc1cc(-n2nc3c(c2-n2ccn(-c4ccc5c(cnn5C)c4F)c2=O)[C@H](C)N(C(=O)c2cc4cc(C5CCOC(C)(C)C5)ccc4n2C2(CNS(C)(=O)=O)CC2)CC3)cc(C)c1F (mixture of isomers) [Compound 64, N-((1-(5-(2,2-dimethyltetrahydro-2H-pyran-4-yl)-2-((S)-3-(3-(4-fluoro-1-methyl-1H-indazol-5-yl)-2-oxo-2,3-dihydro-1H-imidazol-1-yl)-2-(4-fluoro-3,5-dimethylphenyl)-4-methyl-4,5,6,7-tetrahydro-2H-pyrazolo[4,3-c]pyridine-5-carbonyl)-1H-indol-1-yl)cyclopropyl)methyl)methanesulfonamide]"
10,< 20,"C[C@H]1c2c(nn(-c3ccc(F)c(C4CC4)c3)c2-n2ccn(-c3ccc4c(cnn4C)c3F)c2=O)CCN1C(=O)c1nn2cc(C3CCOC(C)(C)C3)cnc2c1C1(c2noc(=O)[nH]2)CC1 (mixture of isomers) [Compound 103, 3-(1-(2-((S)-2-(3-cyclopropyl-4-fluorophenyl)-3-(3-(4-fluoro-1-methyl-1H-indazol-5-yl)-2-oxo-2,3-dihydro-1H-imidazol-1-yl)-4-methyl-4,5,6,7-tetrahydro-2H-pyrazolo[4,3-c]pyridine-5-carbonyl)-6-(2,2-dimethyltetrahydro-2H-pyran-4-yl)pyrazolo[1,5-a]pyrimidin-3-yl)cyclopropyl)-1,2,4-oxadiazol-5(4H)-one]"
11,< 20,"Cc1cc(-n2nc3c(c2-n2ccn(-c4ccc5c(cnn5C)c4F)c2=O)[C@H](C)N(C(=O)c2cn4cc([C@@H]5CCOC(C)(C)C5)ccc4c2[C@@]2(c4noc(=O)[nH]4)C[C@@H]2C)CC3)cc(C)c1F (single isomer, unassigned) [Compound 3]"
12,20 to 100,"Cc1cc(-n2nc3c(c2-n2ccn(-c4ccc5c(cnn5C)c4F)c2=O)[C@H](C)N(C(=O)c2cn4cc([C@H]5CCOC(C)(C)C5)ccc4c2[C@@]2(c4noc(=O)[nH]4)C[C@@H]2C)CC3)cc(C)c1F (single isomer, unassigned) [Compound 4]"
13,< 20,"Cc1cc(-n2nc3c(c2-n2ccn(-c4ccc5c(cnn5C)c4F)c2=O)[C@H](C)N(C(=O)c2cn4cc([C@H]5CCOC(C)(C)C5)ccc4c2[C@]2(c4noc(=O)[nH]4)C[C@@H]2C)CC3)cc(C)c1F (single isomer, unassigned) [Compound 5]"
14,20 to 100,"Cc1cc(-n2nc3c(c2-n2ccn(-c4ccc5c(cnn5C)c4F)c2=O)[C@H](C)N(C(=O)c2cn4cc([C@@H]5CCOC(C)(C)C5)ccc4c2[C@]2(c4noc(=O)[nH]4)C[C@@H]2C)CC3)cc(C)c1F (single isomer, unassigned) [Compound 6]"
15,< 20,"Cc1cc(-c2ccc3c(c2)cc(C(=O)N2CCn4nc(-c5ccc(F)cc5)c(-n5ccn(-c6ccc7c(cnn7C)c6F)c5=O)c4[C@@H]2C)n3C2(c3noc(=O)[nH]3)CC2)ccn1 (single isomer, unassigned) [Compound 7]"
16,< 20,"C[C@H]1c2c(nn(-c3ccc(C(F)(F)F)cc3)c2-n2ccn(-c3ccc4c(cnn4C)c3F)c2=O)CCN1C(=O)c1cn2cc([C@@H]3CCOC(C)(C)C3)ccc2c1C1(c2noc(=O)[nH]2)CC1 (single isomer, unassigned) [Compound 8]"
17,20 to 100,"Cc1cc(-n2nc3c(c2-n2ccn(-c4ccc5c(cnn5C)c4F)c2=O)[C@H](C)N(C(=O)c2cc4cc([C@H]5CCOC(C)(C)C5)ccn4c2C2(c4noc(=O)[nH]4)CC2)CC3)cc(C)c1F (single isomer, unassigned) [Compound 9]"
18,< 20,"C[C@H]1c2c(nn(-c3ccc(F)cc3)c2-n2ccn(-c3ccc4c(cnn4C)c3F)c2=O)CCN1C(=O)c1cn2cc([C@@H]3CCOC(C)(C)C3)ccc2c1C1(c2noc(=O)[nH]2)CC1 (single isomer, unassigned) [Compound 11]"
19,< 20,"C[C@H]1c2c(nn(-c3ccc(F)c(Cl)c3)c2-n2ccn(-c3ccc4c(cnn4C)c3F)c2=O)CCN1C(=O)c1cn2cc([C@@H]3CCOC(C)(C)C3)ccc2c1C1(c2noc(=O)[nH]2)CC1 (single isomer, unassigned) [Compound 12]"
20,< 20,"Cc1cc(-n2nc3c(c2-n2ccn(-c4ccc5c(cnn5C)c4F)c2=O)[C@H](C)N(C(=O)c2cn4cc([C@@H]5CCOC(C)(C)C5)ccc4c2C2(c4noc(=O)[nH]4)CC2)CC3)ccc1F (single isomer, unassigned) [Compound 13]"
